Assay results as given in patent US20230270764A1, “COMPOSITION COMPRISING CANNABINOIDS, TERPENES, AND FLAVONOIDS FOR TREATING DEPRESSION” (priority 2020, published 2023).

Legend:
[1] = system: treatment-resistant major depression patients; assay: Clinical trial of celecoxib plus CBD in treatment-resistant major depression patients; format: in vivo, human; settings: celecoxib or CBD, each by itself
Protocol: In the current study, the antidepressant effect of a combination of celecoxib and CBD is tested in a randomized, prospective, double-blind clinical trial in 80 treatment-resistant major depression patients of both genders, in the age range of 23-70 years. […] The safety and efficacy of celecoxib, CBD and their combination vs. vehicle placebo are assessed. Primary endpoints include the changes from baseline to post-treatment in overall depression levels, and particularly in the vegetative and somatic symptoms of depression, which are highly associated with the inflammatory status of the patients. Secondary endpoints include the changes from baseline to post-treatment in anxiety levels, overall functioning and clinical impression, as well as anhedonia.
Treatment-resistant depressed patients undergo psychological assessment using the Montgomery-Asberg Depression Rating Scale (MADRS), with further analysis of the 3 specific factors of this scale (vegetative symptoms, dysphoria, and retardation), the Somatic Symptoms Scale-8, the Hamilton Anxiety Rating Scale (HARS), the Clinical Global Improvement and Severity Scales (CGI-I and CGI-S), and the Snaith-Hamilton Pleasure Scale (SHAPS). Subjects are treated twice daily (per os) with either a formulation containing celecoxib and CBD or with vehicle placebo. […]

C57BL/6 mice = assay: Porsolt forced swim test; format: in vivo; settings: CLX 10 mg/kg; CBD 5 mg/kg i.p.
Excerpt: All experiments were approved by the Hebrew University of Jerusalem Ethics Committee on Animal Care and Use. […] All data are presented as mean ± SEM.

BV2 microglial cells [2] = assay: LPS-induced IL-1β release by BV2 microglia cell cultures (ELISA); format: cell-based, murine; settings: for IL-1β secretion vs Veh plus LPS: Example 4, by itself at 5 µM, not at 1 or 2.5 µM; for IC50: Mus musculus
Protocol: (§1) The BV2 murine microglial cell line is used in these studies.
(§2) The BV2 cells are cultured at 37° C. in a humidified atmosphere with 5% CO2 in high D-glucose (4.5 g/L) Dulbecco’s modified Eagle’s medium (Sigma, Rehovot, Israel) supplemented with 5% heat-inactivated fetal bovine serum, streptomycin (100 µg/ml), and penicillin (100 units/ml) and sodium pyruvate (1 mM; all from Biological Industries Ltd., Kibbutz Beit Haemek, Israel). 24 hours before experiments with LPS stimulation, the BV2 cells are split into 24 well plates, 2×10^5 cells per well, covered with 1 ml of growth medium and allowed to attach overnight. 24 hr before experiments with α-synuclein, the BV2 cells are split into 96-well plates, 50,000 (5×10^4) cells per well, covered with 200 µl of growth medium and allowed to attach overnight. Cultures of BV2 microglia cells are first treated by an individual cannabinoid, or terpene or flavonoid selected from: Cannabidiol (CBD), Δ-9-tetrahydrocannabinol (THC), Δ-8-tetrahydrocannabinol (THC), cannabigerol (CBG), cannabichromene (CBC), cannabigerolic acid (CBGA), Cannabidiolic acid (CBDA), THC acid (THCA), cannabichromenic Acid (CBCA), Cannabidivarin (CBDV), tetrahydrocannabivarin (THCV), Cannabichromevarin (CBCV), Cannabichromerocin ([…]), Cannabivarin (CBV), Cannabicitran (CBT), Cannabinol (CBN), Cannabicyclol (CBL), Cannabigerorcin (CBGO), Cannabinodiol (CBND), β-caryophyllene, β-elemene, β-myrcene, linalool, α-pinene, β-pinene, eucalyptol, alpha-terpineol, valencene, geraniol (lemonol), bisabolol, nerolidol, ocimene, terpinolene, humulene, α-terpinene, camphene, fenchol, α-phellandrene, Δ3-carene, γ-cardinene, sabinene, limonene, β-amyrin, cycloartenol, cannflavin A, cannflavin B, kaempferol, quercetin, luteolin, apigenin, canniprene, orientin, β-sitosterol, vitexin, isovitexin, and chrysin. Additional cultures of BV2 microglia cells are treated by an individual cannabinoid, with at least one additional cannabinoid, and/or terpene, and/or flavonoid, and/or celecoxib. Additional cultures are exposed to the vehicle of these compounds (cremophor, ethanol and PBS, 1:1:18 (v/v/v)) (FIG. 2A). In some studies, cultures of BV2 microglia cells are treated by a specific whole plant cannabis extract, with or without supplementation with cannabinoid(s), and/or terpene(s) and/or flavonoid(s), and/or celecoxib (FIG. 2B).
(§3) For each individual cannabinoid mentioned above, 3-4 concentrations are used, ranging from 0.1 to 10 µM. For ultra-low dose Δ9-THC the concentration used is 0.01 µM. For each individual terpene or flavonoid mentioned above, 3-4 concentrations are used, ranging from 1 to 50 µM. For celecoxib, 3-4 concentrations are used, ranging from 0.1 to 10 µM. Two hours following the treatment, the cultures are exposed to one of the following microglia stimulators: LPS (Sigma L2630; Escherichia coli serotype O111:B4) is dissolved in D-PBS (Sigma, D8537) to a pre-stock concentration of 1 mg/ml, aliquoted and stored at -80° C. Stock solution of LPS at 10 ug/ml is prepared using sterile D-PBS, followed by filtering via 0.22 µm filter membrane, aliquoting and storing in -20° C. LPS is applied into the cell medium at a final concentration of 100 ng/ml. Poly I:C (Sigma, P1530) was first dissolved in sterile, molecular grade water to the concentration of 10 mg/ml (following the manufacturer’s instructions). This stock solution was further diluted to the concentration of 1 mg/ml in sterile PBS, and the aliquots stored in -20 °C.

BV2 microglial cells [3] = assay: LPS-induced IL-6 release by BV2 microglia cell cultures (ELISA); format: cell-based, murine; settings: for IC50: Mus musculus
Protocol: as §1, §2, §3

LPS-injected mice [4] = assay: Sucrose preference test in the LPS-induced model of depression; format: in vivo
hippocampal microglia = assay: Hippocampal microglia density and morphology (Iba-1 immunohistochemistry) in LPS-injected mice; format: in vivo
Protocol: Given the suppressive effect of CBD on hippocampal microglia numbers in LPS-injected mice, the effect of Cannabidiolic acid (CBDA), as well as a combination of CBD with the flavonoid kaempferol, was examined to determine if they also produce a similar effect. Mice were firstly injected (i.p.) with CBDA or CBD/kaempferol combination, and 1 hr later were injected with LPS ([…] in 10 ml/kg saline). Brains were removed 24 hr later and prepared for immunohistochemistry, using the microglia marker Iba-1.

LPS-injected mice [5] = assay: Porsolt forced swim test in LPS-injected mice; format: in vivo; settings: young-adult male mice
Protocol: Given the mixed effects that CBD administration had in the reversal of LPS-induced depressive-like behavior in young-adult mice, the effects of CBDA by itself, and in combination with CBD, were examined in young-adult (2.5-3.5 months old) female and male mice. Mice were injected (i.p.) with either vehicle, CBDA or CBD and CBDA combination, and 1 hr later with LPS (330 µg/kg). Following injections, the mice were examined according to the methods described in Example 8, apart from the Porsolt forced swim test that replaced the open field test in male mice. In this test, mice were placed in a plastic cylinder (with a height of 20 cm and diameter of 50 cm), filled with 25° C. water. The time spent immobile, defined as the absence of all movement except for motions required to maintain head above water, and the latency for the first immobility episode, were recorded for 6 min, and manually analyzed by an experienced experimenter.

[6] = adult (6-9 months-old) male mice, acute CBD
[7] = young-adult male mice, CBD 30 mg/kg i.p. 3 consecutive days
[8] = young-adult female mice, CBDA 1 mg/kg (not 0.5 or 5)
[9] = young-adult male mice, CBDA 1 mg/kg
[10] = young-adult male mice, CBDA 1 mg/kg (not 5)

Q: Which results are given for C=C(C)[C@@H]1CCC(C)=C[C@H]1c1c(O)cc(CCCCC)cc1O [CBD, cannabidiol]?
A: changes in depression, anxiety, anhedonia and subjective improvement [1]: only mild changes; immobility time, each compound by itself (C57BL/6 mice): no significant effects; IL-1β levels (BV2 microglial cells [2]; Example 3, 5 and 10 µM): effectively reduced; IL-1β secretion vs Veh plus LPS (BV2 microglial cells [2]): effective in decreasing IL-1β; IL-1β release vs Veh plus LPS (BV2 microglial cells [2]; Example 5, alone at 5 µM, no effect at 1 and 2.5 µM): decreased the IL-1β levels significantly; LPS-induced IL-1β secretion (BV2 microglial cells [2]; Example 7, CBD 5 µM by itself (p<0.001)): significant suppression of IL-1β secretion; LPS-induced IL-1β release (BV2 microglial cells [2]; Example 25, CannA, CannB 2.5, 5 and 10 µM, CBD, CannC 5 and 10 µM): significantly reduced; IC50 (BV2 microglial cells [2]; BV-2, read-out: CBD IC50, LPS-induced IL-1β release, Example 4, addition of 1 µM kaempferol): 3.3 µM; IC50 (BV2 microglial cells [2]; BV-2, read-out: CBD IC50, LPS-induced IL-1β release, Example 4, addition of 2.5 µM kaempferol): 2.1 µM; IC50 (BV2 microglial cells [2]; BV-2, read-out: CBD IC50, LPS-induced IL-1β release, Example 4, addition of 5 µM kaempferol): 1.1 µM; IC50 (BV2 microglial cells [2]; BV-2, read-out: CBD IC50, LPS-induced IL-1β release, Example 5, addition of 1 µM quercetin): 2.1 µM; IC50 (BV2 microglial cells [2]; BV-2, read-out: CBD IC50, LPS-induced IL-1β release, Example 5, addition of 2.5 µM quercetin): 1.7 µM; IC50 (BV2 microglial cells [2]; BV-2, read-out: CBD IC50, LPS-induced IL-1β release, Example 5, addition of 5 µM quercetin): 0.5 µM; IC50 (BV2 microglial cells [2]; BV-2, read-out: IC50 for IL-1β inhibition, Example 25 (FIG. 25F), extracts calculated on dominant cannabinoid): 4.7 µM; IC50 (BV2 microglial cells [2]; BV-2, read-out: IC50 for inhibiting LPS-induced IL-1β release, Example 4 (FIG. 5D), by itself): 4.5 µM; IC50 (BV2 microglial cells [2]; BV-2, read-out: IC50 for inhibiting LPS-induced IL-1β release, Example 5 (FIG. 6D), by itself): 3.3 µM; release of IL-6 (BV2 microglial cells [3]; Example 3, 10 µM): significantly inhibited; IL-6 secretion vs Veh plus LPS (BV2 microglial cells [3]; Example 6, CBD or CBDV given by themselves): no significant effect; LPS-induced IL-6 release (BV2 microglial cells [3]; Example 25, CBD, CannA, CannB 5 and 10 µM, CannC 10 µM): significantly decreased; IC50 (BV2 microglial cells [3]; BV-2, Example 6 (FIG. 7D), by itself, read-out: IC50 for inhibiting LPS-induced IL-6 release): 4.3 µM; IC50 (BV2 microglial cells [3]; BV-2, Example 6, addition of 1 µM CBDV, read-out: CBD IC50, LPS-induced IL-6 release): 3.1 µM; IC50 (BV2 microglial cells [3]; BV-2, Example 6, addition of 2.5 µM CBDV, read-out: CBD IC50, LPS-induced IL-6 release): 2 µM; IC50 (BV2 microglial cells [3]; BV-2, Example 6, addition of 5 µM CBDV, read-out: CBD IC50, LPS-induced IL-6 release): 1.7 µM; IC50 (BV2 microglial cells [3]; BV-2, Example 25 (FIG. 25E), extracts calculated on dominant cannabinoid, read-out: IC50 for IL-6 inhibition): 5.9 µM; sucrose preference vs vehicle-LPS group (LPS-injected mice [4]; Example 18, celecoxib 10, 20, 30 mg/kg or CBD 30 mg/kg by themselves): no significant effects; sucrose consumption, LPS-injected groups (LPS-injected mice [4]; [6]): significant difference between the CBD- and vehicle-treated group; sucrose preference (LPS-injected mice [4]; [6]): reduction in the negative effect of LPS on sucrose preference; sucrose preference and sucrose consumption (LPS-injected mice [4]; adult and young adult female mice, acute CBD, saline or LPS): None of these parameters was influenced by treatment with CBD; sucrose preference compared with the saline-injected control group (LPS-injected mice [4]; adult female mice, LPS, CBD 30 mg/kg, CBD 30 mg plus kaempferol 60 mg): significantly reduced sucrose preference; LPS-induced decreases in sucrose preference and sucrose consumption (LPS-injected mice [4]; young adult (2.5-3 months old) male mice, acute CBD): None of these parameters was influenced by treatment with CBD; sucrose consumption, main effect of CBD (LPS-injected mice [4]; young-adult female mice, acute CBD, difference among saline-injected mice): significantly reduced; LPS-induced reduction in sucrose consumption (LPS-injected mice [4]; [7]): no effect; LPS-induced suppression of sucrose preference (LPS-injected mice [4]; [7]): completely reversed; hippocampal microglia density, CBD- vs Veh-treated LPS mice (hippocampal microglia; [7]): significantly reduced

Q: C=C(C)[C@@H]1CCC(C)=C[C@H]1c1c(O)cc(CCCCC)c(C(=O)O)c1O [CBDA, Cannabidiolic acid] was tested. Which “sucrose consumption vs Vehicle-treated LPS-injected mice” value (LPS-injected mice [4]; [8]) did it give?
A: Its value is “significantly increased”.

Q: What about the “sucrose preference vs Vehicle-treated LPS-injected mice” value (LPS-injected mice [4]; young-adult female mice, CBDA 1 mg/kg (not 0.5 or 5) i.p. 1 hr before LPS 330 µg/kg) of the same molecule?
A: The value was “significantly increased”.

Q: And the “sucrose consumption vs Vehicle-treated LPS-injected mice” value (LPS-injected mice [4]; [9])?
A: The value was “significantly increased”.

Q: What about the “sucrose preference vs Vehicle-treated LPS-injected mice” value (LPS-injected mice [4]; [10]) of the same molecule?
A: Its value is “significantly increased”.

Q: What about the “sucrose consumption vs Vehicle-treated LPS-injected mice” value (LPS-injected mice [4]; young-adult male mice, CBDA 5 mg/kg, CBD 25 mg/kg and CBDA 1 mg/kg) of the same molecule?
A: The value was “significant increase”.

Q: And the “time spent in immobility, forced swim test” value (LPS-injected mice [5]; CBDA 1, 5 mg/kg, CBD 25 and CBDA 1 mg/kg)?
A: Its value is “no significant difference”.

Q: What about the “latency to the first episode of immobility” value (LPS-injected mice [5]; printed: CBDA 1 mg/kg) of the same molecule?
A: The value was “significantly increased”.

Q: And the “hippocampal microglia density vs Vehicle” value (hippocampal microglia; [8])?
A: The value was “significantly reduced”.

Q: And the “number of branch points of microglia processes vs Vehicle” value (hippocampal microglia; young-adult female mice, CBDA 5 mg/kg)?
A: Its value is “significantly increased”.

Q: What about the “microglia soma area and processes length” value (hippocampal microglia; young-adult female mice, CBDA 0.5, 1, 5 mg/kg) of the same molecule?
A: Its value is “no significant difference”.

Q: And the “number of branch points of microglia processes vs Vehicle” value (hippocampal microglia; [9])?
A: The value was “significantly increased”.

Q: What about the “hippocampal microglia density vs Vehicle” value (hippocampal microglia; [10]) of the same molecule?
A: Its value is “significantly reduced”.

Q: What about the “microglia soma area and processes length” value (hippocampal microglia; young-adult male mice, CBDA 1, 5 mg/kg, CBD 25 and CBDA 1 mg/kg) of the same molecule?
A: Its value is “no significant difference”.

Q: With O=c1c(O)c(-c2ccc(O)cc2)oc2cc(O)cc(O)c12 [kaempferol] as the molecule, how does the “IL-1β secretion vs Veh plus LPS” value (BV2 microglial cells [2]) read?
A: The value was “effective in decreasing IL-1β”.

Q: What about the IC50 (BV2 microglial cells [2]; BV-2, Example 4 (FIG. 5D), by itself, read-out: IC50 for inhibiting LPS-induced IL-1β release) of the same molecule?
A: Its IC50 is 6.2 µM.
